A short description of the test: Inhibition of sheep M-calpain by fluorescence based assay. Further details: species or system Ovis aries.

The term IC50 denotes the concentration needed to halve the response being measured. Low readings indicate greater potency in that assay, high ones weaker potency in that assay. In the case of `CC(C)[C@H](NC(=O)c1ccc(/N=N/c2ccccc2)cc1)C(=O)N[C@H](C=O)Cc1ccccc1`, 35 nM corresponded to half-maximal inhibition (IC50).

Take `CC(C)[C@H](NC(=O)c1cccc(/N=N/c2ccccc2)c1)C(=O)N[C@H](C=O)Cc1ccccc1`: the IC50 is 170 nM.

Source of the values: ChEMBL document CHEMBL1143682, “Investigation into the P3 binding domain of m-calpain using photoswitchable diazo- and triazene-dipeptide aldehydes: new anticataract agents” (J Med Chem, 2007).
